Laboratory results: publication PMC7773212, “Dissecting the Mechanism of (R)-3-Hydroxybutyrate Dehydrogenase by Kinetic Isotope Effects, Protein Crystallography, and Computational Chemistry” (ACS Catalysis, 2020)
One block for each compound: values may come before it.

What was measured:
[1] = target: T1, PaHBDH (Psychrobacter arcticus, UniProt Q4FRT2); test: X-ray crystal structure, […] Å; assay type: binding; conditions: ternary dead-end complex with NAD+
T1 construct: gene Psyc_1428; homotetramer; landmarks: Gln99, Ser148, His150, Lys158, Tyr161, Val194, Gln202

[2] = target: T2, AbHBDH (Acinetobacter baumannii, UniProt A0A1E3M3N6); test: X-ray crystal structure, […] Å; assay type: binding
T2 construct: gene AUO97_16470; homotetramer; landmarks: Gln95, Ser143, Asn145, Gly149, Phe150, Gly152, Lys153, Tyr156, Val189, Gln197
T2 sequence (A0A1E3M3N6 1-261): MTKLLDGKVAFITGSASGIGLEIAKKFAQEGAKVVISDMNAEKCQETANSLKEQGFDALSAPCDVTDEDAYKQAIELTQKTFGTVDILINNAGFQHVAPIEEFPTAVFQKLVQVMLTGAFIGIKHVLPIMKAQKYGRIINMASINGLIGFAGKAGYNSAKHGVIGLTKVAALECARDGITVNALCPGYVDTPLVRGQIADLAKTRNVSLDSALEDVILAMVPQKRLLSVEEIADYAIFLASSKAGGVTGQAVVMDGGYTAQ

[3] = target: T2, AbHBDH; test: isothermal titration calorimetry; assay type: binding; conditions: 100 mM HEPES, pH 7.0, 25 °C; single-site model
[4] = target: T1, PaHBDH; test: NADH fluorescence titration with enzyme; assay type: binding; conditions: 100 mM HEPES, pH 7.0, 25 °C; 3 μM NADH
[5] = target: T1, PaHBDH; test: X-ray crystal structure, […] Å; assay type: binding
[6] = target: (R)-3-hydroxybutyrate dehydrogenase from Acinetobacter baumannii (Acinetobacter baumannii); test: crystal structure; ternary complexes with NAD+ and acetoacetate or 3-oxovalerate; tetramers formed with crystallographic symmetry; crystals grown at room temperature
[7] = target: (R)-3-hydroxybutyrate dehydrogenase from Acinetobacter baumannii (Acinetobacter baumannii); test: SEC; analytical gel filtration, Superdex 200 10/300 GL, room temperature, samples loaded at 1 mg/mL, 20 mM HEPES pH 8.0, MW standards
[8] = target: (R)-3-hydroxybutyrate dehydrogenase from Psychrobacter arcticus (Psychrobacter arcticus); test: crystal structure; ternary complexes with NAD+ and acetoacetate or 3-oxovalerate; tetramers formed with crystallographic symmetry; crystals grown at room temperature
[9] = target: (R)-3-hydroxybutyrate dehydrogenase from Psychrobacter arcticus (Psychrobacter arcticus); test: SEC; analytical gel filtration, Superdex 200 10/300 GL, room temperature, samples loaded at 1 mg/mL, 20 mM HEPES pH 8.0, MW standards
[10] = ternary dead-end complex with NAD+
[11] = ternary dead-end complex with acetoacetate (also with 3-oxovalerate)

T1 sequence (Q4FRT2 entry or part of it): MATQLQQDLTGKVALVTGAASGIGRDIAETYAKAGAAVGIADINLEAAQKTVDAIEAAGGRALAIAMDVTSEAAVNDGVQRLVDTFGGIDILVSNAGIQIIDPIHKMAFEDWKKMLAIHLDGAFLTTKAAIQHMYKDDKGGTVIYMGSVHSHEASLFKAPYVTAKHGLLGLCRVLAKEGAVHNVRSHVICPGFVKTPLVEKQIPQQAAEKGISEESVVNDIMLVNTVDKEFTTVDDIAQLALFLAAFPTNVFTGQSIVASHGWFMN

Compound: CCC(=O)CC(=O)O [3-oxovalerate]
- X-ray crystal structure, 1.84 Å [1]: Fobs – Fcalc maps show clear density for NAD^+ and either acetoacetate or 3-oxovalerate
- X-ray crystal structure, 1.9 Å [2, 10]: Fobs – Fcalc maps show clear density for NAD^+ and either acetoacetate or 3-oxovalerate

Compound: NC(=O)C1=CN([C@@H]2O[C@H](COP(=O)(O)OP(=O)(O)OC[C@H]3O[C@@H](n4cnc5c(N)ncnc54)[C@H](O)[C@@H]3O)[C@@H](O)[C@H]2O)C=CC1 [NADH]
- Kd [3]: 14 ± 8 µM
- Kd [4]: 7 ± 2 µM

Compound: NC(=O)c1ccc[n+]([C@@H]2O[C@H](COP(=O)(O)OP(=O)(O)OC[C@H]3O[C@@H](n4cnc5c(N)ncnc54)[C@H](O)[C@@H]3O)[C@@H](O)[C@H]2O)c1 [NAD^+]
- X-ray crystal structure, 1.3 Å [5, 11]: crystal structures of the ternary complexes PaHBDH:NAD^+:AcAc, AbHBDH:NAD^+:AcAc
- X-ray crystal structure, 1.9 Å [2, 11]: crystal structures of the ternary complexes PaHBDH:NAD^+:AcAc, AbHBDH:NAD^+:AcAc

Compound: CC(=O)CC(=O)O [acetoacetate]
- X-ray crystal structure, 1.3 Å ([5]; ternary dead-end complex with NAD+, two conformations of acetoacetate): crystal structures of the ternary complexes PaHBDH:NAD^+:AcAc, AbHBDH:NAD^+:AcAc
- X-ray crystal structure, 1.9 Å [2, 10]: crystal structures of the ternary complexes PaHBDH:NAD^+:AcAc, AbHBDH:NAD^+:AcAc

- stoichiometry N [6]: 4
- stoichiometry N [7]: 4
Compound: (R)-3-hydroxybutyrate dehydrogenase from Acinetobacter baumannii (enzyme)

- stoichiometry N [8]: 4
- stoichiometry N [9]: 4
Compound: (R)-3-hydroxybutyrate dehydrogenase from Psychrobacter arcticus (enzyme)
